{"source": "paper PMC9632086", "about": "“Phosphodiesterase 10A (PDE10A) as a novel target to suppress β-catenin and RAS signaling in epithelial ovarian cancer” (Journal of Ovarian Research, 2022)", "target": "T1, PDE10A (Homo sapiens, UniProt Q9Y233)", "T1 construct": "endogenous PDE10A in SKOV3 cells", "T1 sequence (Q9Y233 whole entry)": "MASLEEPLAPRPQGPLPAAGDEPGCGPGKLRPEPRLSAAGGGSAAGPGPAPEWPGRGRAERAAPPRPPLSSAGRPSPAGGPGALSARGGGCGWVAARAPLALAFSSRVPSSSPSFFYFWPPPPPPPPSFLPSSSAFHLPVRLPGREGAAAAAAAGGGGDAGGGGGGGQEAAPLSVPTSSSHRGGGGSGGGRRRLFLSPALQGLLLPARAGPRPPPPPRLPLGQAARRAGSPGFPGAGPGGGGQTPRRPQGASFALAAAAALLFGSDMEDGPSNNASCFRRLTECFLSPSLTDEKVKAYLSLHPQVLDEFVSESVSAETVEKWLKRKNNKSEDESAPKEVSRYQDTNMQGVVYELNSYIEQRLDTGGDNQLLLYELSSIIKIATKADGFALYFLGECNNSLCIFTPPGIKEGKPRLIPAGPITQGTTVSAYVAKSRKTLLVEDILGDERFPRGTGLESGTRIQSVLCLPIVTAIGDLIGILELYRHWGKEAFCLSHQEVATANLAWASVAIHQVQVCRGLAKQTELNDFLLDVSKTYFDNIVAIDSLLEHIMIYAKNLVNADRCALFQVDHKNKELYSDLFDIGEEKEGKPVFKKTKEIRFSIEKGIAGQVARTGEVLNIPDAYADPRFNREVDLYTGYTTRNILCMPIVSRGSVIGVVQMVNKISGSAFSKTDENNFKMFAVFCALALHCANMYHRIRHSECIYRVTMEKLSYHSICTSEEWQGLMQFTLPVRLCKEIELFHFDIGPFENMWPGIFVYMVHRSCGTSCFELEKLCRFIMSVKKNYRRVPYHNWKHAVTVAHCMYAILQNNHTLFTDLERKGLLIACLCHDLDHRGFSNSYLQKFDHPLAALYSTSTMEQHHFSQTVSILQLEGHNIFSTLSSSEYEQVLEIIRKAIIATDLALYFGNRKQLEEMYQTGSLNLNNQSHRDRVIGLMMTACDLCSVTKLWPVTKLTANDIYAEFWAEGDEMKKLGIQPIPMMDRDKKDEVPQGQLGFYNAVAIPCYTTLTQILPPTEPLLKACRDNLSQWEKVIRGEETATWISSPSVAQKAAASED", "experiment": "cellular cAMP immunoassay after […] for […] min, parental and empty-vector cells versus PDE10A knockout clones", "assay_type": "cell-based", "data": [{"smiles": "COc1ccc2c(c1)C(CC(=O)Nc1cccnc1)=C(C)/C2=C/c1cc(OC)c(OC)c(OC)c1", "note": "[MCI-030]", "values": [{"measurement": "cellular cAMP level", "value": "MCI-030 increased cAMP only in SKOV3 parental and EV 1B9 control cells, but not in the PDE10A KO clones"}]}]}
